According to ChEMBL document CHEMBL1687706, “Inhibition of human immunodeficiency virus type 1 replication in human cells by Debio-025, a novel cyclophilin binding agent” (Antimicrob Agents Chemother, 2008):
The source made the active and inactive calls. The calls are words filed in the database; no cut-off is given here.

Key:
[1] = test system: Human immunodeficiency virus 1; conditions: Human immunodeficiency virus 1, 3B
[2] = test system: Rattus norvegicus; experiment: Immunosuppressive activity in Sprague-Dawley rat […] model assessed as percent T lymphocytes at 25 mg/kg, po administered once daily for 28 days by flow cytometry; format: functional
[3] = test system: Human alphaherpesvirus 1; experiment: Antiviral activity against Herpes simplex virus 1 KOS infected in human embryonic lung cells assessed as inhibition of viral replication; format: functional, organism-based; conditions: Human alphaherpesvirus 1, KOS
[4] = test system: Yellow fever virus; experiment: Antiviral activity against Yellow fever virus 17D infected in african green monkey Vero cells assessed as inhibition of viral replication; format: functional, cell-based
[5] = test system: Human immunodeficiency virus 1; experiment: Antiviral activity against HIV1 subtype B 92BR014 infected in human PBMC assessed as inhibition of viral replication by ELISA; format: functional, organism-based; conditions: Human immunodeficiency virus 1, subtype B 92BR014
[6] = test system: Human immunodeficiency virus 1; experiment: Antiviral activity against LPV, APV, ATV, IDV, NFV, RTV, SQV, AZT, ddI, 3TC, d4T-resistant HIV-1 MDR3761 infected in human PBMC assessed as inhibition of viral replication by ELISA; format: functional, organism-based; conditions: Human immunodeficiency virus 1, MDR3761
[7] = test system: Rattus norvegicus; experiment: Immunosuppressive activity in Sprague-Dawley rat […] model assessed as IgM level at 10 mg/kg, po administered once daily for 28 days by ELISA; format: functional
[8] = test system: Human immunodeficiency virus 1; experiment: Antiviral activity against APV, ATV, IDV, LPV, NFV, RTV, SQV, 3TC, FTC, ABC, AZT, d4T, ddC, ddI, TDF, EFV, DLV, NVP-resistant HIV-1 MDR769 infected in human PBMC assessed as inhibition of viral replication by ELISA; format: functional, organism-based; conditions: Human immunodeficiency virus 1, MDR769
[9] = test system: Human immunodeficiency virus 1; experiment: Antiviral activity against HIV1 subtype D 92UG046 infected in human PBMC assessed as inhibition of viral replication by ELISA; format: functional, organism-based; conditions: Human immunodeficiency virus 1, subtype D 92UG046
[10] = Cytotoxicity against MDCK cells; format: cell-based, Canis lupus familiaris; conditions: dog, read-out: TC50 (the source's name)
[11] = Cytotoxicity against human Huh 5.2 cells; format: cell-based, Huh-5-2; conditions: read-out: TC50 (the source's name)
[12] = test system: Human alphaherpesvirus 1; experiment: Antiviral activity against Herpes simplex virus 1 McIntyre infected in human embryonic lung cells assessed as inhibition of viral replication; format: functional, organism-based; conditions: Human alphaherpesvirus 1, McIntyre
[13] = test system: Human betaherpesvirus 5; experiment: Antiviral activity against Human cytomegalovirus AD169 infected in human embryonic lung cells assessed as reduction in viral yield; format: functional, organism-based; conditions: Human betaherpesvirus 5, AD169, lung
[14] = Antiviral activity against HPV-33 infected in CK1 cells assessed as inhibition of viral replication after 7 days; format: functional, Human papillomavirus type 33; conditions: human papillomavirus 33, CK1, 168 h; read-out: TC50 (the source's name)
[15] = test system: Human immunodeficiency virus 1; experiment: Antiviral activity against LPV, APV, ATV, IDV, NFV, RTV, SQV-resistant HIV-1 52-52 infected in human PBMC assessed as inhibition of viral replication by ELISA; format: functional, organism-based; conditions: Human immunodeficiency virus 1, 52-52
[16] = test system: Influenza A virus; experiment: Antiviral activity against Influenza A virus H1N1 infected in MDCK cells assessed as inhibition of viral replication; format: functional, organism-based
[17] = test system: Coxsackievirus; experiment: Antiviral activity against Coxsackie B3 infected in african green monkey Vero cells assessed as inhibition of viral replication; format: functional, organism-based
[18] = test system: Human immunodeficiency virus 1; experiment: microbe, parasite or virus in culture; conditions: Human immunodeficiency virus 1, 3B, MT4
[19] = test system: Rattus norvegicus; experiment: Immunosuppressive activity in Sprague-Dawley rat KHL model assessed as percent cytotoxic T cells at 50 mg/kg, po administered once daily for 28 days by flow cytometry; format: functional, T-cell
[20] = test system: Rattus norvegicus; experiment: Immunosuppressive activity in Sprague-Dawley rat […] model assessed as IgM level at 50 mg/kg, po administered once daily for 28 days by ELISA; format: functional
[21] = test system: Human immunodeficiency virus 1; experiment: Antiviral activity against HIV-1 NL4-3 infected in human TZB cells assessed as inhibition of viral entry at 0.5 to 2.5 uM after 2 hrs by RT-PCR; format: functional, organism-based
[22] = test system: Influenza B virus; experiment: Antiviral activity against influenza B virus infected in MDCK cells assessed as inhibition of viral replication; format: functional, organism-based
[23] = test system: Rattus norvegicus; experiment: Immunosuppressive activity in Sprague-Dawley rat KHL model assessed as percent cytotoxic T cells at 10 mg/kg, po administered once daily for 28 days by flow cytometry; format: functional, T-cell
[24] = test system: Feline coronavirus; experiment: Antiviral activity against Feline coronavirus infected in CRFK assessed as inhibition of viral replication; format: functional, organism-based; conditions: Alphacoronavirus 1, CRFK
[25] = test system: Human immunodeficiency virus 1; experiment: Antiviral activity against HIV1 subtype EA CMU02 infected in human PBMC assessed as inhibition of viral replication by ELISA; format: functional, organism-based; conditions: Human immunodeficiency virus 1, subtype EA CMU02
[26] = test system: Human immunodeficiency virus 1; experiment: Antiviral activity against HIV1 subtype B TEKI infected in human PBMC assessed as inhibition of viral replication by ELISA; format: functional, organism-based; conditions: Human immunodeficiency virus 1, subtype B TEKI
[27] = test system: Human alphaherpesvirus 3; experiment: Antiviral activity against VZV OKA infected in human embryonic lung cells assessed as inhibition of; format: functional, organism-based; conditions: Human alphaherpesvirus 3, OKA
[28] = test system: Bovine viral diarrhea virus 1; experiment: Antiviral activity against BVDV infected in […] cells assessed as inhibition of viral replication; format: functional, organism-based; conditions: Bovine viral diarrhea virus isolates and strains
[29] = test system: PBMC; experiment: Cytotoxicity against human PBMC at 0.83 uM by MTT assay; format: cell-based
[30] = test system: Human immunodeficiency virus 1; experiment: Antiviral activity against HIV1 subtype G Jv1083 infected in human PBMC assessed as inhibition of viral replication by ELISA; format: functional, organism-based; conditions: Human immunodeficiency virus 1, subtype G Jv1083
[31] = test system: Human immunodeficiency virus 1; experiment: Antiviral activity against HIV-1 NL4-3 infected in human TZB cells assessed as inhibition of accumulation of late viral transcripts at 0.5 to 2.5 uM by RT-PCR; format: functional, organism-based
[32] = Antiviral activity against Simian immunodeficiency virus-mac 251 infected in human PBMC assessed as inhibition of viral replication by RT activity; format: functional
[33] = Cytotoxicity against human HeLa cells; format: cell-based; conditions: read-out: TC50 (the source's name)
[34] = test system: Human alphaherpesvirus 1; experiment: Antiviral activity against Herpes simplex virus 1 F infected in human embryonic lung cells assessed as inhibition of viral replication; format: functional, organism-based; conditions: Human alphaherpesvirus 1, strain F
[35] = test system: Human immunodeficiency virus 1; experiment: Antiviral activity against HIV1 subtype B WEJO infected in human PBMC assessed as inhibition of viral replication by ELISA; format: functional, organism-based; conditions: Human immunodeficiency virus 1, subtype B WEJO
[36] = test system: Rattus norvegicus; experiment: Immunosuppressive activity in Sprague-Dawley rat […] model assessed as IgM level at 25 mg/kg, po administered once daily for 28 days by ELISA; format: functional
[37] = test system: Human immunodeficiency virus 1; experiment: Antiviral activity against HIV1 subtype A 92RW016 infected in human PBMC assessed as inhibition of viral replication by ELISA; format: functional, organism-based; conditions: Human immunodeficiency virus 1, subtype A 92RW016
[38] = test system: Human immunodeficiency virus 1; experiment: Antiviral activity against APV, ATV, LPV, IDV, NFV, RTV, SQV-resistant HIV-1 1064-52 infected in human PBMC assessed as inhibition of viral replication by ELISA; format: functional, organism-based; conditions: Human immunodeficiency virus 1, 1064-52
[39] = Antiviral activity against HPV-33 infected in CK1 cells assessed as inhibition of viral replication after 3 days; format: functional, cell-based, Human papillomavirus type 33; conditions: human papillomavirus 33, CK1, 72 h; read-out: TC50 (the source's name)

C/C=C/C[C@@H](C)[C@@H](O)[C@H]1C(=O)N[C@@H](CC)C(=O)N(C)[C@H](C)C(=O)N(CC)[C@@H](C(C)C)C(=O)N[C@@H](C(C)C)C(=O)N(C)[C@@H](CC(C)C)C(=O)N[C@@H](C)C(=O)N[C@H](C)C(=O)N(C)[C@@H](CC(C)C)C(=O)N(C)[C@@H](CC(C)C)C(=O)N(C)[C@@H](C(C)C)C(=O)N1C [ALISPORIVIR]
IC50 [1]: 0.064 µM
Activity [2]: 53.4%
IC50 [3]: > 25 µM
IC50 [4]: > 16.6 µM
IC50 [5]: 5.65 µM
IC50 [6]: 0.16 µM
deltaA [7]: 0.78
IC50 [8]: 0.012 µM
IC50 [9]: 0.01 µM
CC50 [10]: 9.9 µM
CC50 [11]: 22 µM
IC50 [12]: > 25 µM
IC50 [13]: 8.9 µM
CC50 [14]: 0.6 µM
IC50 [15]: 3.12 µM
IC50 [16]: > 9.9 µM
IC50 [17]: > 25 µM
IC50 [18]: 0.099 µM
Activity [19]: 16.1%
deltaA [20]: 0.67
inhibition [21]: inactive
IC50 [22]: > 9.9 µM
Activity [23]: 17.6%
IC50 [24]: 2.2 µM
IC50 [25]: 5.66 µM
IC50 [26]: 4.41 µM
IC50 [27]: 2.5 µM
IC50 [28]: > 25 µM
Activity [29]: Non-toxic
IC50 [30]: 5.53 µM
inhibition [31]: Active
IC50 [32]: 8.24 µM
CC50 [33]: 8.2 µM
IC50 [34]: > 25 µM
IC50 [35]: 0.015 µM
deltaA [36]: 0.78
IC50 [37]: 0.008 µM
IC50 [38]: 0.007 µM
CC50 [39]: 0.4 µM
